Experiments:
blackgrass = experiment: Test B pre/postemergence blackgrass; assay type: in vivo, Alopecurus myosuroides
Method in brief: (§1)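 Herbicidal effect was estimated by eye on a ten-point control scale after plants spent twelve to sixteen days in a greenhouse following soil or foliar treatment. Foliar sprays targeted plants at one to four leaves; all doses were formulated in a non-phytotoxic solvent with surfactant.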

surinam grass = experiment: Test B pre/postemergence surinam grass; assay type: in vivo, Brachiaria decumbens
Method in brief: as §1

cocklebur = experiment: Test B pre/postemergence cocklebur; assay type: in vivo, Xanthium strumarium
Method in brief: as §1

corn = experiment: Test B pre/postemergence corn; assay type: in vivo, Zea mays
Method in brief: as §1

crabgrass = experiment: Test B pre/postemergence crabgrass; assay type: in vivo, Digitaria sanguinalis
Method in brief: as §1

giant foxtail = experiment: Test B pre/postemergence giant foxtail; assay type: in vivo, Setaria faberii
Method in brief: as §1

morningglory = experiment: Test B pre/postemergence morningglory; assay type: in vivo, Ipomoea hederacea
Method in brief: as §1

pigweed = experiment: Test B pre/postemergence pigweed; assay type: in vivo, Amaranthus retroflexus
Method in brief: as §1

rape = experiment: Test B pre/postemergence rape; assay type: in vivo, Brassica napus
Method in brief: as §1

soybean = experiment: Test B pre/postemergence soybean; assay type: in vivo, Glycine max
Method in brief: as §1

sugar beet = experiment: Test B pre/postemergence sugar beet; assay type: in vivo, Beta vulgaris
Method in brief: as §1

velvetleaf = experiment: Test B pre/postemergence velvetleaf; assay type: in vivo, Abutilon theophrasti
Method in brief: as §1

wheat = experiment: Test B pre/postemergence wheat; assay type: in vivo, Triticum aestivum
Method in brief: as §1

wild oat = experiment: Test B pre/postemergence wild oat; assay type: in vivo, Avena fatua
Method in brief: as §1

purple nutsedge = experiment: Test B pre/postemergence purple nutsedge; assay type: in vivo, Cyperus rotundus
Method in brief: as §1

rice = experiment: Test B flood test rice; assay type: in vivo, Oryza sativa
Method in brief: (§2)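 Read-out is a visual response score from 0 (no effect) to 10 (complete control), assigned by comparison with untreated controls. Treatment was applied at the 2-leaf stage, and plants stayed in the greenhouse for twelve to sixteen days before scoring.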

smallflower flatsedge = experiment: Test B flood test smallflower flatsedge; assay type: in vivo, Cyperus difformis
Method in brief: as §2

duck salad = experiment: Test B flood test duck salad; assay type: in vivo, Heteranthera limosa
Method in brief: as §2

bamyardgrass = experiment: Test B flood test barnyardgrass; assay type: in vivo, Echinochloa crus-galli
Method in brief: as §2

[1] = Postemergence, Rate 125 g/ha, scale 0 to 10, 0 is no effect, 10 is complete control
[2] = Postemergence, Rate 500 g/ha, scale 0 to 10, 0 is no effect, 10 is complete control
[3] = Preemergence, Rate 62 g/ha, scale of 0 to 10 where 0 is no effect and 10 is complete control
[4] = Preemergence, Rate 125 g/ha, scale 0 to 10, 0 is no effect, 10 is complete control
[5] = Preemergence, Rate 250 g/ha, scale 0 to 10, 0 is no effect, 10 is complete control
[6] = Preemergence, Rate 500 g/ha, scale of 0 to 10 where 0 is no effect and 10 is complete control
[7] = Rate 62 g/ha, Postemergence, scale 0 to 10, 0 no effect, 10 complete control
[8] = Postemergence, Rate 250 g/ha, scale 0 to 10
[9] = Rate 62 g/ha, flood test species, Pre-emergence, visual evaluation after twelve to sixteen days
[10] = Rate 125 g/ha, under heading Pre-emergence, flood test species, visual evaluation after twelve to sixteen days
[11] = Rate 250 g/ha, Pre-emergence (flood test species), scale 0 to 10, 0 is no effect, 10 is complete control
[12] = Rate 500 g/ha, Pre-emergence section of Table B, 0 to 10 scale (0 no effect, 10 complete control)

C=C(Cn1c(=O)on(C(=O)N(c2ccccc2)C(C)C)c1=O)c1cccnc1 [Compound 498]
Blackgrass plant response rating (blackgrass; [1]): 0 | Plant response rating, Blackgrass (blackgrass; [2]): 5 | Plant response rating, Blackgrass (blackgrass; [3]): 0 | Blackgrass plant response rating (blackgrass; [4]): 0 | Blackgrass plant response rating (blackgrass; [5]): 0 | Blackgrass plant response rating (blackgrass; [6]): 0 | Blackgrass plant response rating (blackgrass; [7]): 0 | B. signalgrass plant response rating (surinam grass; [1]): 0 | B. signalgrass plant response rating (surinam grass; Postemergence, Rate 250 g/ha, scale 0 to 10, 0 no effect, 10 complete control): 0 | Plant response rating, B. signalgrass (surinam grass; [2]): 0 | Plant response rating, B. signalgrass (surinam grass; [3]): 0 | B. signalgrass plant response rating (surinam grass; [4]): 0 | B. signalgrass plant response rating (surinam grass; [5]): 0 | B. signalgrass plant response rating (surinam grass; Preemergence, Rate 500 g/ha, scale 0 to 10, 0 is no effect, 10 is complete control): 0 | B. signalgrass plant response rating (surinam grass; [7]): 0 | Cocklebur plant response rating (cocklebur; [1]): 0 | Cocklebur plant response rating (cocklebur; [8]): 0 | Plant response rating, Cocklebur (cocklebur; [2]): 0 | Plant response rating, Cocklebur (cocklebur; [3]): 0 | Cocklebur plant response rating (cocklebur; [4]): 0 | Cocklebur plant response rating (cocklebur; [5]): 0 | Cocklebur plant response rating (cocklebur; [6]): 0 | Cocklebur plant response rating (cocklebur; [7]): 0 | Corn plant response rating (corn; [1]): 0 | Corn plant response rating (corn; [8]): 0 | Plant response rating, Corn (corn; [2]): 0 | Plant response rating, Corn (corn; [3]): 0 | Corn plant response rating (corn; [4]): 0 | Corn plant response rating (corn; [6]): 0 | Corn plant response rating (corn; [7]): 0 | Crabgrass plant response rating (crabgrass; [8]): 0 | Plant response rating, Crabgrass (crabgrass; [2]): 2 | Plant response rating, Crabgrass (crabgrass; [3]): 0 | Crabgrass plant response rating (crabgrass; [4]): 2 | Crabgrass plant response rating (crabgrass; [6]): 5 | Crabgrass plant response rating (crabgrass; [7]): 0 | Giant foxtail plant response rating (giant foxtail; [1]): 2 | Plant response rating, Giant foxtail (giant foxtail; [2]): 3 | Plant response rating, Giant foxtail (giant foxtail; [3]): 0 | Giant foxtail plant response rating (giant foxtail; [4]): 2 | Giant foxtail plant response rating (giant foxtail; [6]): 8 | Giant foxtail plant response rating (giant foxtail; [7]): 0 | Morningglory plant response rating (morningglory; [1]): 3 | Plant response rating, Morningglory (morningglory; [2]): 4 | Plant response rating, Morningglory (morningglory; [3]): 0 | Morningglory plant response rating (morningglory; [4]): 0 | Morningglory plant response rating (morningglory; [6]): 0 | Morningglory plant response rating (morningglory; [7]): 1 | Redroot pigweed plant response rating (pigweed; [1]): 0 | Plant response rating, Redroot pigweed (pigweed; [2]): 0 | Plant response rating, Redroot pigweed (pigweed; [3]): 0 | Redroot pigweed plant response rating (pigweed; [4]): 0 | Redroot pigweed plant response rating (pigweed; [6]): 0 | Redroot pigweed plant response rating (pigweed; [7]): 0 | Rape plant response rating (rape; [1]): 0 | Plant response rating, Rape (rape; [2]): 0 | Plant response rating, Rape (rape; [3]): 0 | Rape plant response rating (rape; [4]): 0 | Rape plant response rating (rape; [6]): 0 | Rape plant response rating (rape; [7]): 0 | Soybean plant response rating (soybean; [1]): 1 | Plant response rating, Soybean (soybean; [2]): 1 | Plant response rating, Soybean (soybean; [3]): 0 | Soybean plant response rating (soybean; [4]): 0 | Soybean plant response rating (soybean; [6]): 0 | Soybean plant response rating (soybean; [7]): 1 | Sugarbeets plant response rating (sugar beet; [1]): 0 | Plant response rating, Sugarbeets (sugar beet; [2]): 0 | Plant response rating, Sugarbeets (sugar beet; [3]): 0 | Sugarbeets plant response rating (sugar beet; [4]): 0 | Sugarbeets plant response rating (sugar beet; [6]): 0 | Sugarbeets plant response rating (sugar beet; [7]): 0 | Velvetleaf plant response rating (velvetleaf; [1]): 0 | Plant response rating, Velvetleaf (velvetleaf; [2]): 2 | Plant response rating, Velvetleaf (velvetleaf; [3]): 0 | Velvetleaf plant response rating (velvetleaf; [4]): 0 | Velvetleaf plant response rating (velvetleaf; [6]): 0 | Velvetleaf plant response rating (velvetleaf; [7]): 0 | Wheat plant response rating (wheat; [1]): 0 | Plant response rating, Wheat (wheat; [2]): 0 | Plant response rating, Wheat (wheat; [3]): 0 | Wheat plant response rating (wheat; [4]): 0 | Wheat plant response rating (wheat; [6]): 0 | Wheat plant response rating (wheat; [7]): 0 | Wild oats plant response rating (wild oat; [1]): 0 | Plant response rating, Wild oats (wild oat; [2]): 0 | Plant response rating, Wild oats (wild oat; [3]): 0 | Wild oats plant response rating (wild oat; [4]): 0 | Wild oats plant response rating (wild oat; [6]): 0 | Wild oats plant response rating (wild oat; [7]): 0 | Nutsedge plant response rating (purple nutsedge; [1]): 0 | Plant response rating, Nutsedge (purple nutsedge; [2]): 0 | Plant response rating, Nutsedge (purple nutsedge; [3]): 0 | Nutsedge plant response rating (purple nutsedge; [4]): 0 | Nutsedge plant response rating (purple nutsedge; [6]): 0 | Nutsedge plant response rating (purple nutsedge; [7]): 0 | Plant response rating, Rice (0 to 10 scale, 0 is no effect, 10 is complete control) (rice; [9]): 0 | Rice plant response rating (0 to 10 scale, 0 is no effect, 10 is complete control) (rice; [10]): 0 | Rice plant response rating (rice; [11]): 0 | Rice plant response rating (rice; [12]): 0 | Plant response rating, S. Flatsedge (0 to 10 scale, 0 is no effect, 10 is complete control) (smallflower flatsedge; [9]): 0 | S. Flatsedge plant response rating (0 to 10 scale, 0 is no effect, 10 is complete control) (smallflower flatsedge; [10]): 0 | S. Flatsedge plant response rating (smallflower flatsedge; [11]): 0 | S. Flatsedge plant response rating (smallflower flatsedge; [12]): 0 | Plant response rating, Ducksalad (0 to 10 scale, 0 is no effect, 10 is complete control) (duck salad; [9]): 0 | Ducksalad plant response rating (0 to 10 scale, 0 is no effect, 10 is complete control) (duck salad; [10]): 0 | Ducksalad plant response rating (duck salad; [11]): 0 | Ducksalad plant response rating (duck salad; [12]): 0 | Plant response rating, Barnyardgrass (0 to 10 scale, 0 is no effect, 10 is complete control) (bamyardgrass; [9]): 0 | Barnyardgrass plant response rating (0 to 10 scale, 0 is no effect, 10 is complete control) (bamyardgrass; [10]): 0 | Barnyardgrass plant response rating (bamyardgrass; [11]): 0 | Barnyardgrass plant response rating (bamyardgrass; [12]): 0

Source: patent US6737383B1, “Herbicidal oxadiazolidines” (priority 1999, dated 2004)
